Laboratory results reported in article PMC6677754, “In silico design and optimization of selective membranolytic anticancer peptides” (Scientific Reports, 2019).
Peptide text beside a SMILES is read from it.

Assays:
Test in all cases: NCI-60 screening
Assay type in all cases: cell-based, human
786-0 = 786-0 (Renal); log GI50; 48 h, sulforhodamine B, 10^-4 to 10^-8 M
Method: (§1) NCI-60 screening procedure
(§2) The NCI-60 screening procedure was performed by the Developmental Therapeutics Program of the National Cancer Institute. The procedure was performed as previously described24 in 96-well microtiter plates. Each peptide was tested in a 5-concentration assay, starting at 10^-4 M and diluting 10-fold to the lowest 10^-8 M concentration. The peptides were incubated for 48 h and the cell concentration was assayed by using the sulforhodamine B assay25 and optical density measurements. The growth inhibition (GI50) value24, measures the growth inhibitory power of the drug agent. The GI50 value is the concentration of the test drug for which the condition in Eq. S1 is met, where T is the optical density of the test well after a 48-h exposure to the peptide, T0 the optical density before applying the peptide drug and C the control optical density of a well where no peptide was applied.

A549/ATCC = A549/ATCC (Lung); log GI50; 48 h, sulforhodamine B, 10^-4 to 10^-8 M
Method: as §1, §2

BT-549 = BT-549 (Breast); log GI50; 48 h, sulforhodamine B, 10^-4 to 10^-8 M
Method: as §1, §2

CCRF-CEM = CCRF-CEM (Leukemia); log GI50; 48 h, sulforhodamine B, 10^-4 to 10^-8 M
Method: as §1, §2

HL-60 = HL-60 (Leukemia); log GI50; 48 h, sulforhodamine B, 10^-4 to 10^-8 M
Method: as §1, §2

HOP-62 = HOP-62 (Lung); log GI50; 48 h, sulforhodamine B, 10^-4 to 10^-8 M
Method: as §1, §2

HT29 = HT29 (Colon); log GI50; 48 h, sulforhodamine B, 10^-4 to 10^-8 M
Method: as §1, §2

KM12 = KM12 (Colon); log GI50; 48 h, sulforhodamine B, 10^-4 to 10^-8 M
Method: as §1, §2

M14 = M14 (Melanoma); log GI50; 48 h, sulforhodamine B, 10^-4 to 10^-8 M
Method: as §1, §2

MDA-MB-231/ATCC = MDA-MB-231/ATCC (Breast); log GI50; 48 h, sulforhodamine B, 10^-4 to 10^-8 M
Method: as §1, §2

MDA-MB-435 = MDA-MB-435 (Melanoma); log GI50; 48 h, sulforhodamine B, 10^-4 to 10^-8 M
Method: as §1, §2

MOLT-4 = MOLT-4 (Leukemia); log GI50; 48 h, sulforhodamine B, 10^-4 to 10^-8 M
Method: as §1, §2

NCI-H226 = NCI-H226 (Lung); log GI50; 48 h, sulforhodamine B, 10^-4 to 10^-8 M
Method: as §1, §2

NCI-H23 = NCI-H23 (Lung); log GI50; 48 h, sulforhodamine B, 10^-4 to 10^-8 M
Method: as §1, §2

OVCAR-3 = OVCAR-3 (Ovarian); log GI50; 48 h, sulforhodamine B, 10^-4 to 10^-8 M
Method: as §1, §2

OVCAR-4 = OVCAR-4 (Ovarian); log GI50; 48 h, sulforhodamine B, 10^-4 to 10^-8 M
Method: as §1, §2

RXF-393 = RXF-393 (Renal); log GI50; 48 h, sulforhodamine B, 10^-4 to 10^-8 M
Method: as §1, §2

SF-268 = SF-268 (CNS); log GI50; 48 h, sulforhodamine B, 10^-4 to 10^-8 M
Method: as §1, §2

SF-295 = SF-295 (CNS); log GI50; 48 h, sulforhodamine B, 10^-4 to 10^-8 M
Method: as §1, §2

SF-539 = SF-539 (CNS); log GI50; 48 h, sulforhodamine B, 10^-4 to 10^-8 M
Method: as §1, §2

SK-MEL-28 = SK-MEL-28 (Melanoma); log GI50; 48 h, sulforhodamine B, 10^-4 to 10^-8 M
Method: as §1, §2

SK-MEL-2 = SK-MEL-2 (Melanoma); log GI50; 48 h, sulforhodamine B, 10^-4 to 10^-8 M
Method: as §1, §2

SK-OV-3 = SK-OV-3 (Ovarian); log GI50; 48 h, sulforhodamine B, 10^-4 to 10^-8 M
Method: as §1, §2

SN12C = SN12C (Renal); log GI50; 48 h, sulforhodamine B, 10^-4 to 10^-8 M
Method: as §1, §2

U251 = U251 (CNS); log GI50; 48 h, sulforhodamine B, 10^-4 to 10^-8 M
Method: as §1, §2

UACC-62 = UACC-62 (Melanoma); log GI50; 48 h, sulforhodamine B, 10^-4 to 10^-8 M
Method: as §1, §2

Compound	Log GI (M) (786-0)	Log GI (M) (A549/ATCC)	Log GI (M) (BT-549)	Log GI (M) (CCRF-CEM)	Log GI (M) (HL-60)	Log GI (M) (HOP-62)	Log GI (M) (HT29)	Log GI (M) (KM12)	Log GI (M) (M14)	Log GI (M) (MDA-MB-231/ATCC)	Log GI (M) (MDA-MB-435)	Log GI (M) (MOLT-4)	Log GI (M) (NCI-H226)	Log GI (M) (NCI-H23)	Log GI (M) (OVCAR-3)	Log GI (M) (OVCAR-4)	Log GI (M) (RXF-393)	Log GI (M) (SF-268)	Log GI (M) (SF-295)	Log GI (M) (SF-539)	further results
CC[C@H](C)[C@H](NC(=O)[C@H](CCCNC(=N)N)NC(=O)[C@H](Cc1c[nH]c2ccccc12)NC(=O)[C@@H](NC(=O)[C@H](CCCCN)NC(=O)[C@H](CCCCN)NC(=O)[C@@H](NC(=O)[C@@H](NC(=O)[C@@H](NC(=O)[C@H](CCCCN)NC(=O)[C@H](Cc1ccccc1)NC(=O)[C@H](CCCCN)NC(=O)[C@H](CCCCN)NC(=O)[C@H](Cc1ccccc1)NC(=O)[C@@H](NC(=O)[C@@H](N)CCCCN)[C@@H](C)CC)[C@@H](C)O)[C@@H](C)CC)[C@@H](C)CC)C(C)C)C(=O)N[C@@H](Cc1ccccc1)C(=O)NCC(=O)N[C@@H](CCCNC(=N)N)C(=O)N[C@@H](Cc1ccccc1)C(N)=O [AmphiArc2] (H-KIFKKFKTIIKKVWRIFGRF-NH2)	-5.53 M	-5.60 M	-5.45 M	-5.60 M	-5.28 M	-5.62 M	-5.53 M	-5.63 M	-5.62 M	-5.72 M	-5.63 M	-5.51 M	-5.59 M	-5.61 M	-5.67 M	-5.67 M	-5.68 M	-5.68 M	-5.69 M	-5.72 M	Log GI (M) (SK-MEL-28): -5.66 M; Log GI (M) (SK-MEL-2): -5.58 M; Log GI (M) (SK-OV-3): -5.50 M; Log GI (M) (SN12C): -5.69 M; Log GI (M) (U251): -5.52 M; Log GI (M) (UACC-62): -5.69 M
CC[C@H](C)[C@H](NC(=O)[C@H](CCCCN)NC(=O)[C@H](CCCCN)NC(=O)[C@@H](NC(=O)[C@@H](NC(=O)[C@@H](N)Cc1c[nH]cn1)[C@@H](C)CC)[C@@H](C)CC)C(=O)N[C@@H](CCCNC(=N)N)C(=O)N[C@H](C(=O)N[C@@H](Cc1c[nH]c2ccccc12)C(=O)N[C@@H](Cc1ccc(O)cc1)C(=O)N[C@@H](CCCNC(=N)N)C(=O)N[C@@H](CCCCN)C(=O)N[C@@H](C)C(=O)N[C@@H](Cc1c[nH]c2ccccc12)C(=O)N[C@@H](Cc1c[nH]cn1)C(=O)N[C@H](C(=O)N[C@@H](CC(C)C)C(=O)NCC(=O)N[C@@H](CCCCN)C(=O)N[C@H](C(N)=O)C(C)C)C(C)C)[C@@H](C)O [Off2] (H-HIIKKIRTWYRKAWHVLGKV-NH2)	-5.47 M	-5.26 M	-4.89 M	-5.43 M	-5.37 M	-5.34 M	-4.83 M	-5.60 M	-5.38 M	-5.19 M	-5.29 M	-4.85 M	-5.38 M	-5.31 M	-4.98 M	-4.89 M	-5.37 M	-5.46 M	-5.32 M	-5.67 M	Log GI (M) (SK-MEL-28): -5.58 M; Log GI (M) (SK-MEL-2): -5.28 M; Log GI (M) (SK-OV-3): -5.20 M; Log GI (M) (SN12C): -5.53 M; Log GI (M) (U251): -5.14 M; Log GI (M) (UACC-62): -5.69 M
